Reference: patent US12466831B2, “Substituted amino triazolopyrimidine and amino triazolopyrazine adenosine receptor antagonists, pharmaceutical compositions and their use” (Merck Sharp & Dohme LLC, priority 2018, dated 2025)

What was measured:
[1] = biological target: T1, human A2b adenosine receptor (Homo sapiens, UniProt P29275); assay: A2b binding affinity, radioligand filtration binding assay; details: tritiated proprietary A2b antagonist, HEK293 membranes expressing human A2b
T1 construct: purchased Perkin Elmer ES-013-C; host or cells: HEK293 cells recombinantly expressing the receptor; membranes made from them
T1 sequence (P29275 1-332): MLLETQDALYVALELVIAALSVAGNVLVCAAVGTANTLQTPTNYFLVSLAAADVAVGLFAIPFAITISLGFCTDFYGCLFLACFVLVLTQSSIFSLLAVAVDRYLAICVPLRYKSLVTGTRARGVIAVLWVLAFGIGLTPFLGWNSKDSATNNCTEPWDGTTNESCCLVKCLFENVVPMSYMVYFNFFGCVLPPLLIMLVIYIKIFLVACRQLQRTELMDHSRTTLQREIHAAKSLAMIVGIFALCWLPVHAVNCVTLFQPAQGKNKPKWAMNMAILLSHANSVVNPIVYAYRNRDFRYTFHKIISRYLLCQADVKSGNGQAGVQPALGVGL
Text: (§1) Method (A) describes the procedure used to measure A2a binding affinity using radioligand binding. Method (B) describes the procedure used to measure A2a binding affinity using SPA technology. The method used to measure A2b binding affinity is also described below. The method used to determine the A2a IC50 value reported for each compound in the table is indicated next to the reported value. The A2b IC50 value measured using the A2b binding affinity assay is shown in the table next to the compound under the corresponding A2a value.
Measurement of A2b Binding Affinity
The reported affinity of the compounds of the invention for the human A2b adenosine receptor was determined experimentally using a radioligand filtration binding assay. This assay measures the amount of binding of a tritiated proprietary A2b receptor antagonist, in the presence and absence of a compound of the invention, to membranes made from HEK293 cells recombinantly expressing the human A2b adenosine receptor (Perkin Elmer, Cat. No. ES-013-C).
148 μL (135 μg/mL) membranes and 2 μL test compounds were transferred to individual wells of a 96-well polypropylene assay plate and incubated for 15 to 30 minutes at room temperature with agitation. Tritiated radioligand was diluted to a concentration of 14 nM in assay buffer (phosphate buffered saline without Magnesium and Calcium, pH 7.4; GE Healthcare Life Sciences, Cat. No. SH30256.01) and then 50 μL of the solution were transferred to each well of the assay plate. To define total and non-specific binding, wells containing 1% DMSO and 20 μM N-ethylcarboxamidoadenosine (Tocris Bioscience, Cat. No. 1691) respectively, were also included. The wells of the assay plate were incubated at room temperature for 60 minutes with agitation, then filtered using a FilterMate Harvester® (Perkin Elmer) or similar equipment through a UniFilter-96® PEI coated plate (Perkin Elmer Cat. No. 6005274 or 6005277). Filtering was achieved by aspirating the contents of the assay plate for 5 seconds, then washing and aspirating the contents three times with ice-cooled wash buffer (assay buffer supplemented with 0.0025% Brij58) and allowing the vacuum manifold to dry the plate for 30 seconds. The filter plate was incubated for at least 1 hour at 55° C. and allowed to dry. The bottom of the filter plate was then sealed with backing tape. 40 μL Ultima Gold™ (Perkin Elmer, Cat. No. 6013329) was added to each well of the filter plate and the top of the plate was sealed with TopSeal-A PLUS® clear plate seal (Perkin Elmer, Cat. No. 6050185). The plates were then incubated for at least 20 minutes, and then the amount of radioactivity remaining in each well was determined using a TopCount® (Perkin Elmer) scintillation counter. After normalization to total and non-specific binding, the percent effect at each compound concentration was calculated. The plot of percent effect versus the log of compound concentration was analyzed electronically using a 4-parameter logistic fit based on the Levenberg-Marquardt algorithm to generate IC50 values.

[2] = biological target: T2, human A2a adenosine receptor (Homo sapiens, UniProt P29274); assay: A2a binding affinity using radioligand binding, Method (A); details: Method (A): [3H]SCH58261 filtration binding, membranes expressing human A2a
T2 construct: purchased Perkin Elmer RBHA2aM400UA; host or cells: HEK293 or CHO cells (recombinant expression)
Text: as §1
The A2a receptor affinity binding assay measured the amount of binding of a tritiated ligand with high affinity for the A2a adenosine receptor to membranes made from HEK293 or CHO cells recombinantly expressing the human A2a adenosine receptor, in the presence of varying concentrations of a compound of the invention. The data were generated using either filtration binding or a homogenous scintillation proximity assay (SPA).
Method (A): Measurement of A2a Binding Affinity Using Radioligand Binding
148 μL (5 μg/mL) membranes (Perkin Elmer, Cat. No. RBHA2aM400UA) and 2 μL compounds of the invention to be tested (test compound) were transferred to individual wells of a 96-well polypropylene assay plate and incubated for 15 to 30 minutes at room temperature. [^3H] SCH58261 ((7-(2-phenylethyl)-5-amino-2-(2-furyl)-pyrazolo-[4,3-e]-1,2,4-triazolo[1,5-c]pyrimidine)) was diluted in assay buffer (50 mM Tris pH 7.4, 10 mM MgCl2, 0.005% Tween20) to a concentration of 4 nM and 50 μL transferred to each well of the assay plate. To define total and non-specific binding, wells containing 1% DMSO and 1 μM ZM241385 (Tocris Bioscience, Cat. No. 1036) respectively, were also included. The assay plate was incubated at room temperature for 60 minutes with agitation. Using a FilterMate Harvester® (Perkin Elmer), the contents of the assay plate were filtered through a UniFilter-96® PEI coated plate (Perkin Elmer Cat. No. 6005274 or 6005277). Filtering was achieved by aspirating the contents of the assay plate for 5 seconds, then washing and aspirating the contents three times with ice-cooled wash buffer (50 mM Tris-HCl pH 7.4, 150 mM NaCl) and allowing the vacuum manifold to dry the plate for 30 seconds. The filter plate was incubated for at least 1 hour at 55° C. and allowed to dry. The bottom of the filter plate was sealed with backing tape. 40 μL Ultima Gold™ (Perkin Elmer, Cat. No. 6013329) was added to each well of the filter plate and the top of the plate was sealed with TopSeal-A PLUS® clear plate seal (Perkin Elmer, Cat. No. 6050185). The plate was incubated for at least 20 minutes, and then the amount of radioactivity remaining in each well was determined using a TopCount® (Perkin Elmer) scintillation counter. After normalization to total and non-specific binding, the percent effect at each compound concentration was calculated. The plot of percent effect versus the log of compound concentration was analyzed electronically using a 4-parameter logistic fit based on the Levenberg-Marquardt algorithm to generate IC50 values.

T2 sequence (P29274 whole entry): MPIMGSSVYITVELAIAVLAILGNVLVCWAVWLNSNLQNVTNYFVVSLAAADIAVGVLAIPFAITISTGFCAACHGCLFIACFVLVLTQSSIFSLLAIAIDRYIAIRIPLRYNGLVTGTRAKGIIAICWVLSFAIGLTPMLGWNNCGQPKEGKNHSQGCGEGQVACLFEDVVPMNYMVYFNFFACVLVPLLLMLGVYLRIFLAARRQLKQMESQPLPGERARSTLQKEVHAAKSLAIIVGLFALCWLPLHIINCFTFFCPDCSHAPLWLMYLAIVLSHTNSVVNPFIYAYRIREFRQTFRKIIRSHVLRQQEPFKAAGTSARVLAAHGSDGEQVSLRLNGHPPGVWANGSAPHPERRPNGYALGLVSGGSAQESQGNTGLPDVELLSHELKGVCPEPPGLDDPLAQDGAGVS

Compound | IC50 [1] | IC50 [2]
Cc1c(-c2ncco2)nc(N)n2nc(C3CCCC(C)(O)C3)nc12 (single isomer, unassigned) [Example 8.2-2, (1-R or S,3-R or S)-3-(5-amino-8-methyl-7-(oxazol-2-yl)-[1,2,4]triazolo[1,5-c]pyrimidin-2-yl)-1-methylcyclohexan-1-ol] | 7.31 µM | 0.227 µM
Cc1c(-c2ncco2)nc(N)n2nc(C3CCCC(C)(O)C3)nc12 (single isomer, unassigned) [Example 8.3-1, (1-R or S,3-R or S)-3-(5-amino-8-methyl-7-(oxazol-2-yl)-[1,2,4]triazolo[1,5-c]pyrimidin-2-yl)-1-methylcyclohexan-1-ol] | 5.56 µM | 0.0079 µM
Cc1c(-c2ncco2)nc(N)n2nc(C3CCCC(C)(O)C3)nc12 (single isomer, unassigned) [Example 8.3-2, (1-R or S,3-R or S)-3-(5-amino-8-methyl-7-(oxazol-2-yl)-[1,2,4]triazolo[1,5-c]pyrimidin-2-yl)-1-methylcyclohexan-1-ol] | 0.0645 µM | 0.0009 µM
Cc1c(-c2ncco2)nc(N)c2nc(C3CCCC(C)(O)C3)nn12 (single isomer, unassigned) [Example 8.4, (1R,3S and 1S,3R) or (1R,3R and 1S,3S)-3-(8-amino-5-methyl-6-(oxazol-2-yl)-[1,2,4]triazolo[1,5-a]pyrazin-2-yl)-1-methylcyclohexan-1-ol] | 0.411 µM | 0.0067 µM
Cc1c(-c2ncco2)nc(N)c2nc(C3CCCC(C)(O)C3)nn12 (single isomer, unassigned) [Example 8.5, (1R,3S and 1S,3R) or (1R,3R and 1S,3S)-(8-amino-5-methyl-6-(oxazol-2-yl)-[1,2,4]triazolo[1,5-a]pyrazin-2-yl)-1-methylcyclohexan-1-ol] | 9.14 µM | 0.265 µM
Cc1c(-c2ncco2)nc(N)c2nc(C3CCC(C)(O)C3)nn12 (single isomer, unassigned) [Example 8.6, (1R,3S and 1S,3R) or (1R,3R and 1S,3S)-(8-amino-5-methyl-6-(oxazol-2-yl)-[1,2,4]triazolo[1,5-a]pyrazin-2-yl)-1-methylcyclopentan-1-ol] | 0.142 µM | 0.0065 µM
Cc1c(-c2ncco2)nc(N)c2nc(C3CCC(C)(O)C3)nn12 (single isomer, unassigned) [Example 8.7, (1R,3S and 1S,3R) or (1R,3R and 1S,3S)-3-(8-amino-5-methyl-6-(oxazol-2-yl)-[1,2,4]triazolo[1,5-a]pyrazin-2-yl)-1-methylcyclopentan-1-ol] | 2.59 µM | 0.143 µM
Cc1c(-c2cccc(F)c2)nc(N)c2nc(C3CCC(C)(O)C3)nn12 (single isomer, unassigned) [Example 8.8, (1R,3S and 1S,3R) or (1R,3R and 1S,3S)-3-(8-amino-6-(3-fluorophenyl)-5-methyl-[1,2,4]triazolo[1,5-a]pyrazin-2-yl)-1-methylcyclopentan-1-ol] | 0.35 µM | 0.0705 µM
Cc1c(-c2cccc(F)c2)nc(N)c2nc(C3CCC(C)(O)C3)nn12 (single isomer, unassigned) [Example 8.9, (1R,3S and 1S,3R) or (1R,3R and 1S,3S)-3-(8-amino-6-(3-fluorophenyl)-5-methyl-[1,2,4]triazolo[1,5-a]pyrazin-2-yl)-1-methylcyclopentan-1-ol] | 2.09 µM | 0.357 µM
Cc1c(-c2cccc(F)c2)nc(N)c2nc(C3CCCC(C)(O)C3)nn12 (single isomer, unassigned) [Example 8.10-1, (1R,3S or 1S,3R or 1R,3R or 1S,3S)-1-3-(8-amino-6-(3-fluorophenyl)-5-methyl-[1,2,4]triazolo[1,5-a]pyrazin-2-yl)-1-methylcyclohexan-1-ol] | 2.64 µM | 0.175 µM
